In US4730005A, “Leukotriene antagonist” (SmithKline Beckman Corporation, priority 1986, dated 1988):

Tests used:
[1] = test system: LTD4 induced bronchoconstriction in guinea pigs; test: in vivo inhibition of LTD4 induced bronchoconstriction (airway resistance RL) in guinea pigs; design: species or system guinea pig (adult male albino Hartley strain); conditions: intravenous
Procedure: (§1) The leukotriene antagonist activity of the compounds of this invention is measured by the ability of the compounds to inhibit the leukotriene induced contraction of guinea pig tracheal tissues in vitro and to inhibit leukotriene induced bronchoconstriction in guinea pigs in vivo. The following methodologies were employed: In vitro: Guinea pig (adult male albino Hartley strain) tracheal spiral strips of approximate dimensions 2 to 3 mm cross-sectional width and 3.5 cm length were bathed in modified Krebs buffer in jacketed 10 ml tissue bath and continously aerated with 95% 02 /5% CO2. The tissues were connected via silk suture to force displacement transducers for recording isometric tension. The tissues were equilibrated for 1 hr., pretreated for 15 minutes with meclofenamic acid (1 μM) to remove intrinsic prostaglandin responses, and then pretreated for an additional 30 minutes with either the test compound or vehicle control. A cumulative concentration-response curve for LTD4 on triplicate tissues was generated by successive increases in the bath concentration of the LTD4. In order to minimize intertissue variability, the contractions elicited by LTD4 were standardized as a percentage of the maximum response obtained to a reference agonist, carbachol (10 μM).
Calculations: The averages of the triplicate LTD4 concentration-response curves both in the presence and absence of the test compound were plotted on log graph paper. The concentration of LTD4 needed to elicit 30% of the contraction elicited by carbachol was measured and defined as the EC30. The -log KB value for the test compound was determined by the following equations: [formula] In vivo: Anesthetized, spontaneously breathing guinea pigs (Adult male albino Hartley strain) were monitored on a Buxco pulmonary mechanics computer. Changes in airway resistance (RL) were calculated by the computer on a breath-by-breath basis at isovolumic points from signals measuring airflow and transpulmonary pressure using differential pressure transducers. Animals received either test compound or vehicle control intravenously via the jugular vein. LTD4 was then injected into the jugular vein. The bronchoconstriction produced was reflected by % changes in airways resistance relative to the baseline values obtained prior to injection of the test compound or vehicle control. Each guinea pig received either vehicle control or test compound.
Calculations: The average of 3-6 animals per treatment was calculated using the % changes in the pulmonary parameters for control and test compound-treated animals. The average % inhibition by the test compound was calculated from the following equation: [formula]

[2] = molecular target: T1, leukotriene D4 (LTD4) induced contraction of guinea pig tracheal tissues (Cavia porcellus, UniProt Q2NNR5); test: in vitro inhibition of LTD4 induced contraction of guinea pig tracheal spiral strips; assay type: cell-based, guinea pig (adult male albino Hartley strain); conditions: guinea pig trachea, LTD4 agonist, 30 min pretreatment with test compound
T1 construct: Guinea pig (adult male albino Hartley strain) tracheal spiral strips; from tissue; host or cells: guinea pig trachea (spiral strips, adult male albino Hartley strain)
T1 sequence (Q2NNR5 1-340): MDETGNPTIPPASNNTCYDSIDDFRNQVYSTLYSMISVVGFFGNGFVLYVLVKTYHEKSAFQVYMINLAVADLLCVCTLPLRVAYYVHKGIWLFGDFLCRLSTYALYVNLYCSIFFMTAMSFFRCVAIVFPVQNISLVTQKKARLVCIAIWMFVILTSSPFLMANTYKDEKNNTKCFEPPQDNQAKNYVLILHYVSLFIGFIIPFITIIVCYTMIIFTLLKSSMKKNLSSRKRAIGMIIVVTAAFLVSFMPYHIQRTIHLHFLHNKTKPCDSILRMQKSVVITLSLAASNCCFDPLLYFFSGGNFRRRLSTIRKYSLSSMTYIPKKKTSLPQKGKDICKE
Procedure: as §1, with “μM). Calculations: The averages of the triplicate LTD4 concentration-response curves both in the presence and absence of the test compound were plotted on log graph paper. The concentration of LTD4 needed to elicit 30% of the contraction elicited by carbachol was measured and defined as the EC30. The -log KB value for the test compound was determined by the following equations: [formula] In vivo: Anesthetized, spontaneously breathing guinea pigs (Adult male albino Hartley strain) were monitored on a Buxco pulmonary mechanics computer. Changes in airway resistance (RL) were calculated by the computer on a breath-by-breath basis at isovolumic points from signals measuring airflow and transpulmonary pressure using differential pressure transducers. Animals received either test compound or vehicle control intravenously via the jugular vein. LTD4 was then injected into the jugular vein. The bronchoconstriction produced was reflected by % changes in airways resistance relative to the baseline values obtained prior to injection of the test compound or vehicle control. Each guinea pig received either vehicle control or test compound.” for “μM).”

[3] = test system: carrageenan peritonitis in mice; test: carrageenan peritonitis in mice; assay type: in vivo; conditions: oral administration at 100 mg/kg
[4] = test system: arachidonic acid-induced inflammation in mice; test: arachidonic acid-induced inflammation in mice; assay type: in vivo

Row | Kb [2] | Compound | % Inhibition of RL ([1]; (1) 5 mg/kg) | % Inhibition of RL ([1]; (2) 5 mg/kg) | activity against carrageenan peritonitis [3] | ED50 ([4]; Mus musculus, oral) | anti-inflammatory activity ([4]; oral administration) | anti-inflammatory activity ([4]; subcutaneous administration) | anti-inflammatory activity ([4]; topical administration) | % Inhibition of RL ([1]; 10 mg/kg)
1 | 316 nM | O=C(O)CCSC(SCCC(=O)O)c1ccccc1CCCCCCCCc1ccccc1 [2 2 C8 H16 phenyl H, 4,6-Dithia-5-[2-(8-phenyloctyl)phenyl]nonanedioic acid] | 100% | 95.3% | demonstrated activity | 105 mg/kg | demonstrated anti-inflammatory activity | demonstrated anti-inflammatory activity | demonstrated anti-inflammatory activity | 
2 | 398 nM | CCCCCCCCCCCOc1ccccc1C(SCCC(=O)O)SCCC(=O)O [2 2 OC11 H23 H, 4,6-Dithia-5-(2-undecyloxyphenyl)nonanedioic acid] |  |  |  |  |  |  |  | 89.4%
